# pIC50: −log10 of the molar value.
# Tests used:
# [1] = test system: KARPAS-422; experiment: Induction of cell cycle arrest in human KARPAS-422 cells assessed as accumulation of cells at G1 phase at 5 nM incubated for 72 hrs again compound diluted in growth medium measured after 96 hrs by propidium iodide staining based flow cytometry analysis (reference value: 47.71%); format: functional; details: time 168 hrs
# [2] = test system: KARPAS-422; experiment: Induction of cell cycle arrest in human KARPAS-422 cells assessed as accumulation of cells at S phase at 5 nM incubated for 72 hrs again compound diluted in growth medium measured after 96 hrs by propidium iodide staining based flow cytometry analysis (reference value: 35.89%); format: functional; details: time 168 hrs
# [3] = test system: KARPAS-422; experiment: Induction of cell cycle arrest in human KARPAS-422 cells assessed as accumulation of cells at S phase at 20 nM incubated for 72 hrs again compound diluted in growth medium measured after 96 hrs by propidium iodide staining based flow cytometry analysis (reference value: 35.89%); format: functional; details: time 168 hrs
# [4] = test system: KARPAS-422; experiment: Induction of apoptosis in human KARPAS-422 cells assessed as late apoptotic cells at 5 nM incubated for 72 hrs again compound diluted in growth medium measured after 96 hrs by annexin-V FITC and propidium iodide based flow cytometry analysis (reference value: […]%); format: functional; details: time 168 hrs
# [5] = test system: KARPAS-422; experiment: Induction of cell cycle arrest in human KARPAS-422 cells assessed as accumulation of cells at G1 phase at 10 nM incubated for 72 hrs again compound diluted in growth medium measured after 96 hrs by propidium iodide staining based flow cytometry analysis (reference value: 47.71%); format: functional; details: time 168 hrs
# [6] = test system: KARPAS-422; experiment: Induction of apoptosis in human KARPAS-422 cells assessed as late apoptotic cells at 10 nM incubated for 72 hrs again compound diluted in growth medium measured after 96 hrs by annexin-V FITC and propidium iodide based flow cytometry analysis (reference value: 0.74%); format: functional; details: time 168 hrs
# [7] = test system: KARPAS-422; experiment: Induction of cell cycle arrest in human KARPAS-422 cells assessed as accumulation of cells at S phase at 10 nM incubated for 72 hrs again compound diluted in growth medium measured after 96 hrs by propidium iodide staining based flow cytometry analysis (reference value: 35.89%); format: functional; details: time 168 hrs
# [8] = test system: KARPAS-422; experiment: Induction of cell cycle arrest in human KARPAS-422 cells assessed as accumulation of cells at G2 phase at 5 nM incubated for 72 hrs again compound diluted in growth medium measured after 96 hrs by propidium iodide staining based flow cytometry analysis (reference value: 16.41%); format: functional; details: time 168 hrs
# [9] = test system: KARPAS-422; experiment: Induction of apoptosis in human KARPAS-422 cells assessed as late apoptotic cells at 2.5 nM incubated for 72 hrs again compound diluted in growth medium measured after 96 hrs by annexin-V FITC and propidium iodide based flow cytometry analysis (reference value: 0.74%); format: functional; details: time 168 hrs
# [10] = test system: KARPAS-422; experiment: Antiproliferative activity against human KARPAS-422 cells assessed as inhibition of cell growth measured after 72 hrs by CCK-8 method; format: functional, cell-based; details: KARPAS-422, 72 h
# [11] = test system: KARPAS-422; experiment: Induction of apoptosis in human KARPAS-422 cells assessed as late apoptotic cells at 2.5 nM incubated for 72 hrs again compound diluted in growth medium measured after 96 hrs by annexin-V FITC and propidium iodide based flow cytometry analysis (reference value: […]%); format: functional; details: time 168 hrs
# [12] = test system: KARPAS-422; experiment: Induction of cell cycle arrest in human KARPAS-422 cells assessed as accumulation of cells at G1 phase at 2.5 nM incubated for 72 hrs again compound diluted in growth medium measured after 96 hrs by propidium iodide staining based flow cytometry analysis (reference value: 47.71%); format: functional; details: time 168 hrs
# [13] = test system: KARPAS-422; experiment: Induction of cell cycle arrest in human KARPAS-422 cells assessed as accumulation of cells at G1 phase at 20 nM incubated for 72 hrs again compound diluted in growth medium measured after 96 hrs by propidium iodide staining based flow cytometry analysis (reference value: 47.71%); format: functional; details: time 168 hrs
# [14] = test system: KARPAS-422; experiment: Induction of apoptosis in human KARPAS-422 cells assessed as late apoptotic cells at 20 nM incubated for 72 hrs again compound diluted in growth medium measured after 96 hrs by annexin-V FITC and propidium iodide based flow cytometry analysis (reference value: […]%); format: functional; details: time 168 hrs
# [15] = test system: KARPAS-422; experiment: Induction of apoptosis in human KARPAS-422 cells assessed as early apoptotic cells at 5 nM incubated for 72 hrs again compound diluted in growth medium measured after 96 hrs by annexin-V FITC and propidium iodide based flow cytometry analysis (reference value: 2.62%); format: functional; details: time 168 hrs
# [16] = Metabolic stability in human liver microsomes assessed as intrinsic clearance at 1 uM measured upto 60 mins in presence of NADPH by LC-MS/MS analysis; format: ADME, Microsome; details: read-out: CLH
# [17] = test system: KARPAS-422; experiment: Induction of apoptosis in human KARPAS-422 cells assessed as late apoptotic cells at 10 nM incubated for 72 hrs again compound diluted in growth medium measured after 96 hrs by annexin-V FITC and propidium iodide based flow cytometry analysis (reference value: […]%); format: functional; details: time 168 hrs
# [18] = test system: KARPAS-422; experiment: Induction of cell cycle arrest in human KARPAS-422 cells assessed as accumulation of cells at S phase at 2.5 nM incubated for 72 hrs again compound diluted in growth medium measured after 96 hrs by propidium iodide staining based flow cytometry analysis (reference value: 35.89%); format: functional; details: time 168 hrs
# [19] = Inhibition of EZH2 Y641F mutant (unknown origin) preincubated for 15 mins followed by substrate addition and measured after 45 mins by AlphaLISA assay; parameters: species or system Homo sapiens
# [20] = Inhibition of EZH2 Y641N mutant (unknown origin) preincubated for 15 mins followed by substrate addition and measured after 45 mins by AlphaLISA assay; parameters: species or system Homo sapiens
# [21] = test system: KARPAS-422; experiment: Induction of apoptosis in human KARPAS-422 cells assessed as late apoptotic cells at 20 nM incubated for 72 hrs again compound diluted in growth medium measured after 96 hrs by annexin-V FITC and propidium iodide based flow cytometry analysis (reference value: 0.74%); format: functional; details: time 168 hrs
# [22] = test system: KARPAS-422; experiment: Induction of cell cycle arrest in human KARPAS-422 cells assessed as accumulation of cells at G2 phase at 10 nM incubated for 72 hrs again compound diluted in growth medium measured after 96 hrs by propidium iodide staining based flow cytometry analysis (reference value: 16.41%); format: functional; details: time 168 hrs
# [23] = test system: KARPAS-422; experiment: Induction of apoptosis in human KARPAS-422 cells assessed as viable cells at 2.5 nM incubated for 72 hrs again compound diluted in growth medium measured after 96 hrs by annexin-V FITC and propidium iodide based flow cytometry analysis (reference value: 95.57%); format: functional; details: time 168 hrs, read-out: Activity
# [24] = test system: KARPAS-422; experiment: Induction of apoptosis in human KARPAS-422 cells assessed as early apoptotic cells at 2.5 nM incubated for 72 hrs again compound diluted in growth medium measured after 96 hrs by annexin-V FITC and propidium iodide based flow cytometry analysis (reference value: 2.62%); format: functional; details: time 168 hrs
# [25] = test system: KARPAS-422; experiment: Induction of apoptosis in human KARPAS-422 cells incubated for 72 hrs again compound diluted in growth medium measured after 96 hrs by annexin-V FITC and propidium iodide based flow cytometry analysis; format: functional, cell-based; details: dose 2.5-20 nM, time 168.0 hrs
# [26] = test system: KARPAS-422; experiment: Induction of cell cycle arrest in human KARPAS-422 cells assessed as accumulation of cells at G2 phase at 20 nM incubated for 72 hrs again compound diluted in growth medium measured after 96 hrs by propidium iodide staining based flow cytometry analysis (reference value: 16.41%); format: functional; details: time 168 hrs
# [27] = test system: KARPAS-422; experiment: Induction of apoptosis in human KARPAS-422 cells assessed as viable cells at 10 nM incubated for 72 hrs again compound diluted in growth medium measured after 96 hrs by annexin-V FITC and propidium iodide based flow cytometry analysis (reference value: 95.57%); format: functional; details: time 168 hrs, read-out: Activity
# [28] = test system: KARPAS-422; experiment: Induction of apoptosis in human KARPAS-422 cells assessed as late apoptotic cells at 5 nM incubated for 72 hrs again compound diluted in growth medium measured after 96 hrs by annexin-V FITC and propidium iodide based flow cytometry analysis (reference value: 0.74%); format: functional; details: time 168 hrs
# [29] = test system: KARPAS-422; experiment: Induction of cell cycle arrest in human KARPAS-422 cells assessed as accumulation of cells at G2 phase at 2.5 nM incubated for 72 hrs again compound diluted in growth medium measured after 96 hrs by propidium iodide staining based flow cytometry analysis (reference value: 16.41%); format: functional; details: time 168 hrs
# [30] = test system: KARPAS-422; experiment: Induction of apoptosis in human KARPAS-422 cells assessed as viable cells at 20 nM incubated for 72 hrs again compound diluted in growth medium measured after 96 hrs by annexin-V FITC and propidium iodide based flow cytometry analysis (reference value: 95.57%); format: functional; details: time 168 hrs, read-out: Activity
# [31] = test system: KARPAS-422; experiment: Induction of apoptosis in human KARPAS-422 cells assessed as viable cells at 5 nM incubated for 72 hrs again compound diluted in growth medium measured after 96 hrs by annexin-V FITC and propidium iodide based flow cytometry analysis (reference value: 95.57%); format: functional; details: time 168 hrs, read-out: Activity
# [32] = Metabolic stability in human liver microsomes assessed as half life at 1 uM measured upto 60 mins in presence of NADPH by LC-MS/MS analysis; format: ADME, Microsome
# [33] = test system: KARPAS-422; experiment: Induction of apoptosis in human KARPAS-422 cells assessed as early apoptotic cells at 10 nM incubated for 72 hrs again compound diluted in growth medium measured after 96 hrs by annexin-V FITC and propidium iodide based flow cytometry analysis (reference value: 2.62%); format: functional; details: time 168 hrs
# [34] = test system: KARPAS-422; experiment: Induction of apoptosis in human KARPAS-422 cells assessed as early apoptotic cells at 20 nM incubated for 72 hrs again compound diluted in growth medium measured after 96 hrs by annexin-V FITC and propidium iodide based flow cytometry analysis (reference value: 2.62%); format: functional; details: time 168 hrs
smiles,measurement,setting,value
CCN(c1cc(-c2ccc3c(c2)n(C)c(=O)n3C2CCN(C)CC2)cc(C(=O)NCc2c(C)cc(C)[nH]c2=O)c1C)C1CCC(N(C)C)CC1 (centres undefined),Activity,[1],55.91%
same,Activity,[2],28.46%
same,Activity,[3],24.24%
same,Activity,[4],2.96%
same,Activity,[5],59.1%
same,Activity,[6],5.47%
same,Activity,[7],26.31%
same,Activity,[8],15.64%
same,Activity,[9],2.57%
same,pIC50,[10],8.45
same,Activity,[11],3.84%
same,Activity,[12],52.26%
same,Activity,[13],65.03%
same,Activity,[14],6.81%
same,Activity,[15],2.29%
same,microsomal CLint at 1 µM,[16],7.87 µL/min/mg
same,Activity,[17],4.8%
same,Activity,[18],31.43%
same,pIC50,[19],10.52
same,pIC50,[20],10.10
same,Activity,[21],12.28%
same,Activity,[22],14.6%
same,viability at 0.0025 µM,[23],89.3%
same,Activity,[24],4.23%
same,Activity,[25],Dose-Dependent Effect
same,Activity,[26],10.74%
same,viability at 0.01 µM,[27],81.8%
same,Activity,[28],8.08%
same,Activity,[29],16.32%
same,viability at 0.02 µM,[30],73.8%
same,viability at 0.005 µM,[31],86.7%
same,half-life at 1 µM,[32],178 min
same,Activity,[33],7.93%
same,Activity,[34],7.09%

# Reference: ChEMBL document CHEMBL5550123, “Discovery of novel pyridone-benzamide derivatives possessing a 1-methyl-2-benzimidazolinone moiety as potent EZH2 inhibitors for the treatment of B-cell lymphomas” (Bioorg Med Chem, 2024)
